Measurements taken from patent publication US10029984B2, “Mono- or di-substituted indole derivatives as dengue viral replication inhibitors” (Janssen Pharmaceuticals, Inc., priority 2015, dated 2018).

What was measured:
DENV-2 16681 strain = experiment: DENV-2 antiviral assay (eGFP-labeled virus in Vero cells); assay type: cell-based, Dengue virus; details: DENV-2 16681 eGFP, MOI 0.5, 3 days
Description: The antiviral activity of all the compounds of the invention was tested against DENV-2 16681 strain which was labeled with enhanced green fluorescent protein (eGPF; Table 1). The culture medium consists of minimal essential medium supplemented with 2% of heat-inactivated fetal calf serum, 0.04% gentamycin (50 mg/mL) and 2 mM of L-glutamine. Vero cells, obtained from ECACC, were suspended in culture medium and 25 μL was added to 384-well plates (2500 cells/well), which already contain the antiviral compounds. Typically, these plates contain a 4-fold serial dilution of 9 dilution steps of the test compound at 200 times the final concentration in 100% DMSO (200 nL). In addition, each compound concentration is tested in quadruplicate (final concentration range: 25 μM-0.00038 μM). Finally, each plate contains wells which are assigned as virus controls (containing cells and virus in the absence of compound), cell controls (containing cells in the absence of virus and compound) and medium controls (containing medium in the absence of cells, virus and compounds). To the wells assigned as medium control, 25 μL of culture medium was added instead of Vero cells. Once the cells were added to the plates, the plates were incubated for 30 minutes at room temperature to allow the cells to distribute evenly within the wells. Next, the plates were incubated in a fully humidified incubator (37° C., 5% CO2) until the next day. Then, DENV-2 strain 16681, labeled with eGFP, was added at a multiplicity of infection (MOI) of 0.5. Therefore, 15 μL of virus suspension was added to all the wells containing test compound and to the wells assigned as virus control. In parallel, 15 μL of culture medium was added to the medium and cell controls. Next, the plates were incubated for 3 days in a fully humidified incubator (37° C., 5% CO2). At the day of the read out, the eGFP fluorescence was measured using an automated fluorescence microscope at 488 nm (blue laser). Using an in-house LIMS system, inhibition dose response curves for each compound were calculated and the half maximal effective concentration (EC50) was determined. Therefore, the percent inhibition (I) for every test concentration is calculated using the following formula: I=100*(ST−SCC)/(SVC−SCC); ST, SCC and SVC are the amount of eGFP signal in the test compound, cell control and virus control wells, respectively. The EC50 represents the concentration of a compound at which the virus replication is inhibited with 50%, as measured by a 50% reduction of the eGFP fluorescent intensity compared to the virus control. The EC50 is calculated using linear interpolation.

in vitro = assay type: cell-based; details: African green monkey, CC50
Description: In parallel, the toxicity of the compounds was assessed on the same plates. Once the read-out for the eGFP signal was done, 10 μL of resazurin, a cell viability stain, was added to all wells of the 384-well plates. The resazurin assay is based on the reduction of the blue resazurin by NADH, produced by the cells, into the highly fluorescent product, resorufin. The formation of pink fluorescent resorufin is directly related to the number of viable cells in the well. The plates were incubated for an additional 5 hours in a fully humidified incubator (37° C., 5% CO2). Next, the plates were measured on an Infinite reader (Tecan) using an excitation wavelength of 530 nm. The half maximal cytotoxic concentration (CC50) was also determined, defined as the concentration required to reduce the resazurin conversion by 50% compared to that of the cell control wells. Finally, the selectivity index (SI) was determined for the compounds, which was calculated as followed: SI=CC50/EC50.

[1] = Dengue virus, DENV2, Vero, 72 h

COc1cc(NC(C(=O)c2c[nH]c3c(C)c(F)ccc23)c2ccc(F)cc2OC)cc(S(C)(=O)=O)c1 (racemic) [Compound 2, 2-(4-fluoro-2-methoxyphenyl)-1-(6-fluoro-7-methyl-1H-indol-3-yl)-2-((3-methoxy-5-(methylsulfonyl)phenyl)amino)ethanone]
EC50 (DENV-2 16681 strain; [1]): 1.3 nM | CC50 (in vitro): 8000 nM

COc1cc(NC(C(=O)c2c[nH]c3c(C)c(Cl)ccc23)c2ccc(F)cc2OC)cc(S(C)(=O)=O)c1 (racemic) [Compound 3, 1-(6-chloro-7-methyl-1H-indol-3-yl)-2-(4-fluoro-2-methoxyphenyl)-2-((3-methoxy-5-(methylsulfonyl)phenyl)amino)ethanone]
EC50 (DENV-2 16681 strain; [1]): 0.58 nM | CC50 (in vitro): 7200 nM

COc1cc(NC(C(=O)c2c[nH]c3cc(Cl)ccc23)c2ccc(F)cc2OC)cc(S(C)(=O)=O)c1 (racemic) [Compound 4, 1-(6-chloro-1H-indol-3-yl)-2-(4-fluoro-2-methoxyphenyl)-2-((3-methoxy-5-(methylsulfonyl)phenyl)amino)ethanone]
EC50 (DENV-2 16681 strain; [1]): 1.1 nM | CC50 (in vitro): 6600 nM

COc1cc(NC(C(=O)c2c[nH]c3cc(OC)ccc23)c2ccc(F)cc2OC)cc(S(C)(=O)=O)c1 (racemic) [Compound 5, 2-(4-fluoro-2-methoxyphenyl)-1-(6-methoxy-1H-indol-3-yl)-2-((3-methoxy-5-(methylsulfonyl)phenyl)amino)ethanone]
EC50 (DENV-2 16681 strain; [1]): 2 nM | CC50 (in vitro): 24000 nM

COc1cc(NC(C(=O)c2c[nH]c3cc(F)c(F)cc23)c2ccc(F)cc2OC)cc(S(C)(=O)=O)c1 (racemic) [Compound 7, 1-(5,6-difluoro-1H-indol-3-yl)-2-(4-fluoro-2-methoxyphenyl)-2-((3-methoxy-5-(methylsulfonyl)phenyl)amino)ethanone]
EC50 (DENV-2 16681 strain; [1]): 1.5 nM | CC50 (in vitro): 5000 nM

COc1cc(NC(C(=O)c2c[nH]c3c(C)cc(F)cc23)c2ccc(F)cc2OC)cc(S(C)(=O)=O)c1 (racemic) [Compound 8, 2-(4-fluoro-2-methoxyphenyl)-1-(5-fluoro-7-methyl-1H-indol-3-yl)-2-((3-methoxy-5-(methylsulfonyl)phenyl)amino)ethanone]
EC50 (DENV-2 16681 strain; [1]): 2.8 nM | CC50 (in vitro): 7600 nM

COc1cc(NC(C(=O)c2c[nH]c3cc(C)c(F)cc23)c2ccc(F)cc2OC)cc(S(C)(=O)=O)c1 (racemic) [Compound 9, 2-(4-fluoro-2-methoxyphenyl)-1-(5-fluoro-6-methyl-1H-indol-3-yl)-2-((3-methoxy-5-(methylsulfonyl)phenyl)amino)ethanone]
EC50 (DENV-2 16681 strain; [1]): 1.6 nM | CC50 (in vitro): 8800 nM

COc1cc(NC(C(=O)c2c[nH]c3cc(OC)c(C)cc23)c2ccc(F)cc2OC)cc(S(C)(=O)=O)c1 (racemic) [Compound 10, 2-(4-fluoro-2-methoxyphenyl)-2-((3-methoxy-5-(methylsulfonyl)phenyl)amino)-1-(6-methoxy-5-methyl-1H-indol-3-yl)ethanone]
EC50 (DENV-2 16681 strain; [1]): 1.1 nM | CC50 (in vitro): 7800 nM

COc1cc(NC(C(=O)c2c[nH]c3cc(OC)c(F)cc23)c2ccc(F)cc2OC)cc(S(C)(=O)=O)c1 (racemic) [Compound 11, 2-(4-fluoro-2-methoxyphenyl)-1-(5-fluoro-6-methoxy-1H-indol-3-yl)-2-((3-methoxy-5-(methylsulfonyl)phenyl)amino)ethanone]
EC50 (DENV-2 16681 strain; [1]): 3 nM | CC50 (in vitro): 12000 nM

COc1cc(NC(C(=O)c2c[nH]c3c(Cl)c(OC)ccc23)c2ccc(F)cc2OC)cc(S(C)(=O)=O)c1 (racemic) [Compound 12, 1-(7-chloro-6-methoxy-1H-indol-3-yl)-2-(4-fluoro-2-methoxyphenyl)-2-((3-methoxy-5-(methylsulfonyl)phenyl)amino)ethanone]
EC50 (DENV-2 16681 strain; [1]): 0.6 nM | CC50 (in vitro): > 25000 nM

COc1cc(NC(C(=O)c2c[nH]c3c(F)c(F)ccc23)c2ccc(F)cc2OC)cc(S(C)(=O)=O)c1 (racemic) [Compound 13, 1-(6,7-difluoro-1H-indol-3-yl)-2-(4-fluoro-2-methoxyphenyl)-2-((3-methoxy-5-(methylsulfonyl)phenyl)amino)ethanone]
EC50 (DENV-2 16681 strain; [1]): 1.4 nM | CC50 (in vitro): 7600 nM

COc1cc(NC(C(=O)c2c[nH]c3cc(F)c(C)cc23)c2ccc(F)cc2OC)cc(S(C)(=O)=O)c1 (racemic) [Compound 14, 2-(4-fluoro-2-methoxyphenyl)-1-(6-fluoro-5-methyl-1H-indol-3-yl)-2-((3-methoxy-5-(methylsulfonyl)phenyl)amino)ethanone]
EC50 (DENV-2 16681 strain; [1]): 1.5 nM | CC50 (in vitro): 5300 nM

COc1cc(NC(C(=O)c2c[nH]c3ccc(C)cc23)c2ccc(F)cc2OC)cc(S(C)(=O)=O)c1 (racemic) [Compound 15, 2-(4-fluoro-2-methoxyphenyl)-2-((3-methoxy-5-(methylsulfonyl)phenyl)amino)-1-(5-methyl-1H-indol-3-yl)ethanone]
EC50 (DENV-2 16681 strain; [1]): 1.5 nM | CC50 (in vitro): 7800 nM

COc1cc(NC(C(=O)c2c[nH]c3cc(OC)c(Cl)cc23)c2ccc(F)cc2OC)cc(S(C)(=O)=O)c1 (racemic) [Compound 16, 1-(5-chloro-6-methoxy-1H-indol-3-yl)-2-(4-fluoro-2-methoxyphenyl)-2-((3-methoxy-5-(methylsulfonyl)phenyl)amino)ethanone]
EC50 (DENV-2 16681 strain; [1]): 0.66 nM | CC50 (in vitro): 8800 nM

COc1cc(NC(C(=O)c2c[nH]c3ccc(C(F)(F)F)cc23)c2ccc(F)cc2OC)cc(S(C)(=O)=O)c1 (racemic) [Compound 17, 2-(4-fluoro-2-methoxyphenyl)-2-((3-methoxy-5-(methylsulfonyl)phenyl)amino)-1-(5-(trifluoromethyl)-1H-indol-3-yl)ethanone]
EC50 (DENV-2 16681 strain; [1]): 0.24 nM | CC50 (in vitro): 3500 nM

COc1cc(NC(C(=O)c2c[nH]c3ccc(OC(F)(F)F)cc23)c2ccc(F)cc2OC)cc(S(C)(=O)=O)c1 (racemic) [Compound 18, 2-(4-fluoro-2-methoxyphenyl)-2-((3-methoxy-5-(methylsulfonyl)phenyl)amino)-1-(5-(trifluoromethoxy)-1H-indol-3-yl)ethanone]
EC50 (DENV-2 16681 strain; [1]): 0.25 nM | CC50 (in vitro): 3300 nM

COc1cc(NC(C(=O)c2c[nH]c3cc(OC)ccc23)c2ccc(F)cc2OC)cc(S(C)(=O)=O)c1 (single isomer, unassigned) [Enantiomer 5A, 2-(4-fluoro-2-methoxyphenyl)-1-(6-methoxy-1H-indol-3-yl)-2-((3-methoxy-5-(methylsulfonyl)phenyl)amino)ethanone]
EC50 (DENV-2 16681 strain; listed as 5A): 70 nM | CC50 (in vitro): 24000 nM

COc1cc(NC(C(=O)c2c[nH]c3c(F)c(F)ccc23)c2ccc(F)cc2OC)cc(S(C)(=O)=O)c1 (single isomer, unassigned) [Enantiomer 13A, 1-(6,7-difluoro-1H-indol-3-yl)-2-(4-fluoro-2-methoxyphenyl)-2-((3-methoxy-5-(methylsulfonyl)phenyl)amino)ethanone]
EC50 (DENV-2 16681 strain; listed as 13A): 17 nM | CC50 (in vitro): 9500 nM
